Experimental data as given in ChEMBL document CHEMBL4229418, “Design, synthesis and pharmacology of aortic-selective acyl-CoA: Cholesterol O-acyltransferase (ACAT/SOAT) inhibitors” (Bioorg Med Chem, 2018).

Key:
[1] = molecular target: T1, Sterol O-acyltransferase 1 (Mus musculus, UniProt Q61263); assay: Inhibition of ACAT1 in mouse J774 cells assessed as reduction in esterified cholesterol accumulation after 18 hrs in presence of 25-hydroxycholesterol; assay type: cell-based
T1 sequence (Q61263 whole entry): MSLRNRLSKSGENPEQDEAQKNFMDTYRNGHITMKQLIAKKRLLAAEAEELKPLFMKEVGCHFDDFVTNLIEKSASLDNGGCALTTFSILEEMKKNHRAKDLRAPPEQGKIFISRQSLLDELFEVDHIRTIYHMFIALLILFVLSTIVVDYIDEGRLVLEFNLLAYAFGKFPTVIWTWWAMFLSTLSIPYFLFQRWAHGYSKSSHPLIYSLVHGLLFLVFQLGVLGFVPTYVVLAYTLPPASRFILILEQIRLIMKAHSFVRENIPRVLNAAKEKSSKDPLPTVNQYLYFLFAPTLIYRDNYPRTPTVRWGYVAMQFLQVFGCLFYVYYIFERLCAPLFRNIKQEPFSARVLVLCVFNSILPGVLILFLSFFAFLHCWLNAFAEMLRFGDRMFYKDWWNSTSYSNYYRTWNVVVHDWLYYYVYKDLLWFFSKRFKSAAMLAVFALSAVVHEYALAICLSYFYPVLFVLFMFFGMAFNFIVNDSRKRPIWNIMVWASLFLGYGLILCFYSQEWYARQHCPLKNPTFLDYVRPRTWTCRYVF

[2] = Inhibition of SOAT2 in New Zealand white rabbit intestinal microsomes assessed as reduction in cholesteryl oleate formation incubated for 5 mins in presence of [14C]-oleoyl-CoA and BSA complex by TLC method; design: species or system Oryctolagus cuniculus, Intestine
[3] = Inhibition of SOAT1 in arterial homogenates isolated from 1% cholesterol fed New Zealand white rabbit assessed as reduction in cholesteryl oleate formation incubated for 5 mins in presence of [14C]-oleoyl-CoA and BSA complex by TLC method; assay type: tissue-based, Oryctolagus cuniculus
Oryctolagus cuniculus = species: Oryctolagus cuniculus; assay: Selectivity ratio of IC50 for inhibition of SOAT2 in New Zealand white rabbit intestinal microsomes to IC50 for inhibition of SOAT1 in arterial homogenates isolated from 1% cholesterol fed New Zealand white rabbit

| IC50 [1] | IC50 [2] | IC50 [3] | SMILES | Ratio IC50 (Oryctolagus cuniculus) |
| --- | --- | --- | --- | --- |
| 0.4 µM | 0.11 µM | 0.034 µM | Cc1ccc2nc(SCCCCCC(=O)Nc3c(C(C)C)cccc3C(C)C)oc2c1 | 3.2 |
| 1.1 µM | 0.094 µM | 0.015 µM | CC(C)c1cccc(C(C)C)c1NC(=O)CCCCCSc1nc2ccc(N(C)C)cc2o1 | 6.3 |
| 0.41 µM | 0.028 µM | 0.007 µM | CC(C)c1cccc(C(C)C)c1NC(=O)CCCCCCSc1nc2ccccc2s1 | 4 |
| 1.7 µM | 0.044 µM | 0.12 µM | CC(C)c1cccc(C(C)C)c1NC(=O)CCCCCCCCCCCCCCSc1nc2ccccc2[nH]1 | 0.4 |
| 1.1 µM | 0.074 µM | 0.064 µM | CC(C)c1cccc(C(C)C)c1NC(=O)CCCCCSc1nc2cc(CO)ccc2o1 | 1.2 |
| 0.3 µM | 0.031 µM | 0.014 µM | CC(C)c1cccc(C(C)C)c1NC(=O)CCCCCCCCSc1nc2ccccc2[nH]1 | 2.2 |
| – | 0.03 µM | 0.005 µM | CC(C)c1cccc(C(C)C)c1NC(=O)CCCCCCSc1nc2ccccc2o1 | 6 |
| 11 µM | 4.5 µM | 3.6 µM | CC(C)c1cccc(C(C)C)c1NC(=O)CCCCCSc1nc2cc(C(=O)O)ccc2o1 | 1.3 |
| 0.04 µM | 0.022 µM | 0.004 µM | CC(C)c1cccc(C(C)C)c1NC(=O)CCCCCCCSc1nc2ccccc2o1 | 5.5 |
| – | 0.32 µM | 0.042 µM | CC(C)c1cccc(C(C)C)c1NC(=O)CCCCCSc1nc2c(CN(C)C)cccc2o1 | 7.6 |
| 1.9 µM | 0.065 µM | 0.01 µM | CC(C)c1cccc(C(C)C)c1NC(=O)CCCCCSc1nc2ccccc2o1 | 6.5 |
| 0.5 µM | 0.25 µM | 0.043 µM | CC(C)c1cccc(C(C)C)c1NC(=O)CCCCCSc1nc2cc(N(C)C)ccc2o1 | 5.8 |
| 0.41 µM | 0.044 µM | 0.04 µM | CC(C)c1cccc(C(C)C)c1NC(=O)CCCCCCCCCCCCCCSc1nc2ccccc2o1 | 1.1 |
| 3.6 µM | 0.22 µM | 0.084 µM | CC(C)c1cccc(C(C)C)c1NC(=O)CCCCSc1nc2ccccc2o1 | 2.6 |
| 4.4 µM | 5 µM | 2.1 µM | CC(C)c1cccc(C(C)C)c1NC(=O)CCCCCSc1nc2ccc(C(=O)O)cc2o1 | 2.4 |
| 7 µM | 0.18 µM | 0.076 µM | CC(C)c1cccc(C(C)C)c1NC(=O)CCCCCSc1nc2ccc(CO)cc2o1 | 2.4 |
| 0.048 µM | 0.034 µM | 0.024 µM | CC(C)c1cccc(C(C)C)c1NC(=O)CCCCCCSc1nc2ccccc2[nH]1 | 1.4 |
| 0.1 µM | 0.14 µM | 0.028 µM | CC(C)c1cccc(C(C)C)c1NC(=O)CCCCCSc1nc2cc(C(F)(F)F)ccc2o1 | 5 |
| – | – | 0.17 µM | CCCCCC(=O)Nc1c(C(C)C)cccc1C(C)C | – |

| IC50 [1] | IC50 [2] | IC50 [3] | SMILES | Ratio IC50 (Oryctolagus cuniculus) |
| --- | --- | --- | --- | --- |
| 5.6 µM | 0.13 µM | 0.096 µM | CC(C)c1cccc(C(C)C)c1NC(=O)CCCCCSc1nc2cccc(CN(C)C)c2o1 | 1.4 |
| 0.5 µM | 0.12 µM | 0.029 µM | CC(C)c1cccc(C(C)C)c1NC(=O)CCCCCSc1nc2c(N(C)C)cccc2o1 | 4.1 |
| – | – | 8.6 µM | CC(=O)Nc1c(C(C)C)cccc1C(C)C | – |
| 0.03 µM | – | 0.018 µM | CC(C)c1cccc(C(C)C)c1NC(=O)CCCCCCCSc1nc2ccccc2[nH]1 | 1.7 |
| – | 0.14 µM | 0.025 µM | CC(C)c1cccc(C(C)C)c1NC(=O)CCCCCSc1nc2ncccc2o1 | – |
| 2.2 µM | 0.11 µM | 0.056 µM | CC(C)c1cccc(C(C)C)c1NC(=O)CCCCCSc1nc2cccc(CO)c2o1 | 2 |
| 5.2 µM | 0.43 µM | 0.39 µM | CC(C)c1cccc(C(C)C)c1NC(=O)CCCCSc1nc2ccccc2[nH]1 | 1.1 |
| 1.8 µM | 0.17 µM | 0.25 µM | CC(C)c1cccc(C(C)C)c1NC(=O)CCCCCSc1nc2cc(CN(C)C)ccc2o1 | 0.7 |
| 1.8 µM | 0.093 µM | 0.088 µM | CC(C)c1cccc(C(C)C)c1NC(=O)CCCCCCCCCCCCCCSc1nc2ccccc2s1 | 1.1 |
| 5.2 µM | 0.033 µM | 0.026 µM | CC(C)c1cccc(C(C)C)c1NC(=O)CCCCCSc1nc2ccccc2s1 | 1.3 |
| 11 µM | – | – | CC(C)c1cccc(C(C)C)c1NC(=O)CCCCCSc1nc2c(C(=O)O)cccc2o1 | – |
| 0.5 µM | 0.11 µM | 0.029 µM | COC(=O)c1ccc2nc(SCCCCCC(=O)Nc3c(C(C)C)cccc3C(C)C)oc2c1 | 3.8 |
| 3.1 µM | 0.8 µM | 0.3 µM | CC(C)c1cccc(C(C)C)c1NC(=O)CCCSc1nc2ccccc2[nH]1 | 2.7 |
| 0.82 µM | 0.02 µM | 0.036 µM | CCCCCCCN(CCCCCSc1nc(-c2ccccc2)c(-c2ccccc2)[nH]1)C(=O)Nc1ccc(F)cc1F [LECIMIBIDE] | – |
| 0.18 µM | 0.047 µM | 0.031 µM | CC(C)c1cccc(C(C)C)c1NC(=O)CSc1nc2ccccc2s1 | 1.5 |
| – | 0.1 µM | 0.028 µM | CC(C)c1cccc(C(C)C)c1NC(=O)CCCSc1nc2ccccc2s1 | 3.6 |
| 2.8 µM | 0.15 µM | 0.045 µM | CC(C)c1cccc(C(C)C)c1NC(=O)CCCCCSc1nc2cnccc2o1 | 3.3 |
| 0.35 µM | 0.038 µM | 0.026 µM | CC(C)c1cccc(C(C)C)c1NC(=O)CCCCCSc1nc2ccccc2[nH]1 | 1.5 |
| 11 µM | 0.18 µM | 0.045 µM | CC(C)c1cccc(C(C)C)c1NC(=O)CCCCCSc1nc2c(CO)cccc2o1 | 4 |

| IC50 [1] | IC50 [2] | IC50 [3] | SMILES | Ratio IC50 (Oryctolagus cuniculus) |
| --- | --- | --- | --- | --- |
| – | – | 31 µM | CSc1nc2ccccc2o1 | – |
| 0.28 µM | 0.019 µM | 0.004 µM | CC(C)c1cccc(C(C)C)c1NC(=O)CCSc1nc2ccccc2s1 | 4.8 |
| 2.8 µM | 0.12 µM | 0.043 µM | CC(C)c1cccc(C(C)C)c1NC(=O)CCCCCSc1nc2cc(O)ccc2o1 | 2.8 |
| 0.18 µM | 5.8 µM | 2.3 µM | CC(C)c1cccc(C(C)C)c1NC(=O)CSc1nc2ccccc2[nH]1 | 2.5 |
| 0.059 µM | 0.036 µM | 0.007 µM | CC(C)c1cccc(C(C)C)c1NC(=O)CCCCCCCSc1nc2ccccc2s1 | 5.1 |
| 11 µM | – | – | CC(C)c1cccc(C(C)C)c1NC(=O)CCCCCSc1nc2cccc(C(=O)O)c2o1 | 1 |
| 2.3 µM | 0.081 µM | 0.053 µM | CC(C)c1cccc(C(C)C)c1NC(=O)CCCCCSc1nc2ccc(O)cc2o1 | 1.5 |
| – | – | 26 µM | CCCCSc1nc2ccccc2o1 | – |
| 0.043 µM | 0.018 µM | 0.004 µM | CC(C)c1cccc(C(C)C)c1NC(=O)CCCCCCCCSc1nc2ccccc2s1 | 4.5 |
| 57 µM | 0.13 µM | 0.062 µM | CC(C)c1cccc(C(C)C)c1NC(=O)CCCCSc1nc2ccccc2s1 | 2.1 |
| 0.57 µM | 0.011 µM | 0.005 µM | CC(C)c1cccc(C(C)C)c1NC(=O)CCCCCCCCCSc1nc2ccccc2s1 | 2.2 |
| 2.4 µM | 0.37 µM | 0.13 µM | CC(C)c1cccc(C(C)C)c1NC(=O)CCCCCSc1nc2ccc(CN(C)C)cc2o1 | 2.8 |
| 8.8 µM | 0.24 µM | 0.24 µM | CC(C)c1cccc(C(C)C)c1NC(=O)CCCCCSc1nc2c(O)cccc2o1 | 1 |
| 0.1 µM | 0.014 µM | 0.006 µM | CC(C)c1cccc(C(C)C)c1NC(=O)CCCCCCCCCSc1nc2ccccc2o1 | 2.3 |
| – | 0.2 µM | 0.035 µM | CC(C)c1cccc(C(C)C)c1NC(=O)CSc1nc2ccccc2o1 | 5.7 |
| – | 0.21 µM | 0.07 µM | COC(=O)c1ccc2oc(SCCCCCC(=O)Nc3c(C(C)C)cccc3C(C)C)nc2c1 | 3 |
| – | – | 0.015 µM | CC(C)c1cccc(C(C)C)c1NC(=O)CCSc1nc2ccccc2o1 | – |
| 2.8 µM | – | 0.036 µM | CC(C)c1cccc(C(C)C)c1NC(=O)CCCSc1nc2ccccc2o1 | – |
